{
  "source": "patent US20110294874A1",
  "about": "“DIAGNOSIS AND THERAPY OF ORGAN DYSFUNCTION USING SPHINGANINE-1-PHOSPHATE” (The Trustees of Columbia University in the City of New York, priority 2008, published 2011)",
  "key": {"[1]": {"tested_on": "C57BL/6 mice subjected to liver IR", "assay": "Murine model of liver ischemia reperfusion (hepatic IR): plasma ALT and creatinine", "type": "in vivo, mouse", "conditions": "for Effect of pre-treatment on Sg1P-mediated renal and hepatic protection after liver IR: given prior to Sg1P treatment, serum creatinine and ALT; for Serum ALT (mean) / Serum creatinine (mean): C57BL/6 mice, 60 min liver ischemia, 24 h reperfusion; for Effect of pretreatment alone on kidney injury resulting from liver IR / Effect of pretreatment alone on liver injury resulting from liver IR: antagonist alone, no Sg1P"}, "[2]": {"tested_on": "SK2 KO mice subjected to liver IR", "assay": "Liver IR in SK2 KO mice: plasma ALT and creatinine", "type": "in vivo, mouse", "conditions": "SK2KO, hepatic IR 24 h", "procedure": "(§1) The effects of administering Sg1P (0.1 mg/kg i.v. and 0.2 mg/kg s.c.) on liver and renal injury were also determined in the KO mice and are also shown in Tables 9 and 10 below."}, "[3]": {"conditions": "mouse, in vivo"}, "[4]": {"tested_on": "SK1 KO mice subjected to liver IR", "assay": "Liver IR in SK1 KO mice: plasma ALT and creatinine", "type": "in vivo, mouse", "conditions": "SK1KO, hepatic IR 24 h", "procedure": "as §1"}, "[5]": {"tested_on": "SK-deficient mice subjected to liver IR", "assay": "Liver IR in SK-deficient mice (subtype not stated)", "type": "in vivo, mouse", "conditions": "liver IR (data not shown)", "procedure": "as §1"}, "S1P1 and S1P3 receptors": {"tested_on": "S1P1 and S1P3 receptors", "conditions": "cited from earlier work"}, "[6]": {"tested_on": "C57BL/6 mice subjected to liver IR", "assay": "Kidney H&E histology after liver IR", "type": "in vivo, mouse", "conditions": "pre-treatment prior to Sg1P", "source_text": "Liver IR-induced AKI in mice shared similar histological changes observed in human AKI associated with liver failure, as observed in H&E slides of kidney sections taken from the mice (see FIG. 3). Multifocal acute tubular injury including individual cell necrosis involving the juxtamedullary proximal tubules of the S3 segment was observed. […] Endothelial apoptosis of peritubular capillaries was also visible in H&E sections as linear arrays of apoptotic bodies corresponding to the interstitial capillary lining endothelium. […] The number of glomeruli with detectable juxtaglomerular apparatus and the number of cells per juxtaglomerular apparatus were both increased after liver IR, indicating hyperplasia of the juxtaglomerular apparatus. […] Liver IR produced large necrotic areas of liver tissue. The average percentage of necrotic areas in liver samples taken from liver IR mice were 92%±2% (n=6), while no necrosis was found in sham-operated mice. Livers were also analyzed for the degree of hepatocellular damage."}, "[7]": {"tested_on": "C57BL/6 mice subjected to liver IR", "assay": "Liver H&E histology after liver IR (percent necrosis, Suzuki score)", "type": "in vivo, mouse", "conditions": "pre-treatment prior to Sg1P treatment", "procedure": "Mice were anesthetized with intraperitoneal pentobarbital (50 mg/kg or to effect). Mice were placed under a heating lamp and on a 37° C. heating pad. After a midline laparotomy and intraperitoneal application of 20 U heparin, left lateral and median lobes of the liver were subjected to ischemia with a microaneurysm clip occluding the hepatic triad above the bifurcation. This method of partial hepatic ischemia results in a segmental (˜70%) hepatic ischemia but spares the right lobe of the liver and prevents mesenteric venous congestion by allowing portal decompression throughout the right and caudate lobes of the liver. The liver was then repositioned in the peritoneal cavity in its original location for 60 minutes. The liver was kept moist with gauze soaked in 0.9% normal saline. The body temperature was monitored by an infrared temperature sensor (Linear Laboratories, Fremont, Calif.) every 10 min. and maintained at 37° C. using a heating lamp and a heating pad. After 60 minutes, the liver was reperfused and the wound closed. Sham-operated mice were subjected to laparotomy and identical liver manipulations without vascular occlusion. Two, 4 and 24 hr after reperfusion, plasma was collected for the measurement of alanine aminotransferase (ALT), a common indicator of liver damage, as well as creatinine (Cr) a common indicator of kidney damage. The liver tissue subjected to IR was collected to measure percent liver necrosis (2, 4 and 24 hr after IR), neutrophil infiltration (with immunohistochemistry, 4 and 24 hr after IR), apoptosis (with terminal deoxynucleotidyl transferase-mediated dUTP nick end labeling staining, caspase 3 immunoblotting and DNA laddering, 24 hr after IR), and inflammation by RT-PCR for pro-inflammatory mRNAs (4 hr after IR).\nLivers were also analyzed for the degree of hepatocellular damage using the Suzuki's criteria (Suzuki et al., Transplantation 1993, Vol. 55, pp. 1265-1272). To obtain a Suzuki score, 3 liver injury indices are graded: sinusoidal congestion (0-4), hepatocyte necrosis (0-4), and ballooning degeneration (0-4) are graded for a total score of 0-12. No necrosis, congestion, or centrilobular ballooning is given a score of 0 whereas severe congestion/ballooning and >60% lobular necrosis is given a value of 4."}, "[8]": {"conditions": "0.1 mg/kg i.v. and 0.2 mg/kg s.c."}},
  "note": "Values joined by “and” are separate entries in the source; they are usually repeats but may differ in a detail not shown here. Equal values may be shown once.",
  "data": [
    {"molecule": "CC(=N)NCCC[C@H](N)C(=O)O", "note": "[L-NIO]", "values": [
      {"measurement": "Effect of pre-treatment on Sg1P-mediated renal and hepatic protection after liver IR", "setting": "[1]", "value": "had no effects"}
    ]},
    {"molecule": "CCCCCCCCCCCCC/C=C/[C@@H](O)[C@@H](N)CO", "note": "[Sphingosine, sphingosine]", "values": [
      {"measurement": "Serum ALT (mean)", "setting": "[1]", "value": 9269, "unit": "U/L"},
      {"measurement": "Serum creatinine (mean)", "setting": "[1]", "value": 0.76, "unit": "mg/dL"},
      {"measurement": "Serum ALT (mean)", "setting": "[1]; listed as sphingosine", "value": "9269±583", "unit": "U/L"},
      {"measurement": "Serum creatinine (mean)", "setting": "[1]; listed as sphingosine", "value": "0.76 ± 0.06", "unit": "mg/dL"}
    ]},
    {"molecule": "CCCCCCCCCCCCC/C=C/[C@@H](O)[C@@H](N)COP(=O)(O)O", "note": "[S1P, sphingosine-1-phosphate]", "values": [
      {"measurement": "Serum ALT (mean)", "setting": "[1]", "value": "9178±1822 U/L and 9178 U/L"},
      {"measurement": "Serum creatinine (mean)", "setting": "[1]", "value": "0.72 ± 0.13 mg/dL and 0.72 mg/dL"},
      {"measurement": "Creatinine (mean)", "setting": "[2]", "value": 0.880, "unit": "mg/dL"},
      {"measurement": "ALT (mean)", "setting": "[2]; [8]", "value": 13165.08, "unit": "U/L"},
      {"measurement": "Rescue of serum Sg1P levels", "setting": "[3]", "value": "completely rescued"},
      {"measurement": "Creatinine (mean)", "setting": "[4]", "value": 1.035, "unit": "mg/dL"},
      {"measurement": "ALT (mean)", "setting": "[4]; [8]", "value": 17416.67, "unit": "U/L"}
    ]},
    {"molecule": "CCCCCCCCCCCCCCC[C@@H](O)[C@@H](N)CO", "note": "[Sphinganine, sphinganine]", "values": [
      {"measurement": "Serum ALT (mean)", "setting": "[1]", "value": 7170, "unit": "U/L"},
      {"measurement": "Serum creatinine (mean)", "setting": "[1]", "value": 0.58, "unit": "mg/dL"},
      {"measurement": "Serum ALT (mean)", "setting": "[1]; listed as sphinganine", "value": "7170±1282", "unit": "U/L"},
      {"measurement": "Serum creatinine (mean)", "setting": "[1]; listed as sphinganine", "value": "0.58 ± 0.05", "unit": "mg/dL"},
      {"measurement": "Kidney protection", "setting": "[5]", "value": "failed to provide kidney protection"},
      {"measurement": "Protective effect on the liver", "setting": "[5]", "value": "failed to provide protective effect on the liver"}
    ]},
    {"molecule": "FC(F)(F)c1cccc(-c2noc(-c3cc(-c4ccccc4)c(C(F)(F)F)s3)n2)c1", "note": "[SEW2871]", "values": [
      {"measurement": "Serum ALT (mean)", "setting": "[1]", "value": "6502±552", "unit": "U/L"},
      {"measurement": "Serum creatinine (mean)", "setting": "[1]", "value": "0.63 ± 0.08", "unit": "mg/dL"}
    ]},
    {"molecule": "CCCCCCCCc1cccc(NC(=O)[C@H](N)COP(=O)(O)O)c1", "note": "[VPC]", "values": [
      {"measurement": "Serum ALT (mean)", "setting": "[1]", "value": 18253, "unit": "U/L"},
      {"measurement": "Serum creatinine (mean)", "setting": "[1]", "value": 1.61, "unit": "mg/dL"},
      {"measurement": "Serum ALT (mean)", "setting": "[1]; listed as VPC 23019", "value": "18253±1709", "unit": "U/L"},
      {"measurement": "Effect of pretreatment alone on kidney injury resulting from liver IR", "setting": "[1]", "value": "exacerbated kidney injury"},
      {"measurement": "Effect of pretreatment alone on liver injury resulting from liver IR", "setting": "[1]", "value": "exacerbated liver injury"},
      {"measurement": "Selectivity for S1P1 (over S1P3)", "setting": "S1P1 and S1P3 receptors", "value": 50, "unit": "fold"}
    ]},
    {"molecule": "pertussis toxin", "values": [
      {"measurement": "Effect of pre-treatment on Sg1P-mediated renal and hepatic protection after liver IR", "setting": "[1]", "value": "prevented"},
      {"measurement": "Effect of pre-treatment on protective effects of Sg1P on renal histology", "setting": "[6]", "value": "reduced the protective effects"},
      {"measurement": "Necrotic areas in the liver after IR", "setting": "[7]", "value": "increased significantly"}
    ]},
    {"molecule": "COc1cccc(-c2cc(=O)c3ccccc3o2)c1N", "note": "[PD98059]", "values": [
      {"measurement": "Effect of pre-treatment on Sg1P-mediated renal and hepatic protection after liver IR", "setting": "[1]", "value": "prevented"},
      {"measurement": "Effect of pre-treatment on protective effects of Sg1P on renal histology", "setting": "[6]", "value": "reduced the protective effects"},
      {"measurement": "Necrotic areas in the liver after IR", "setting": "[7]", "value": "increased significantly"}
    ]},
    {"molecule": "CCCCCCCCc1ccc(CCC(N)(CO)CO)cc1", "note": "[FTY720]", "values": [
      {"measurement": "Serum creatinine (mean)", "setting": "[1]", "value": "0.65 ± 0.06", "unit": "mg/dL"},
      {"measurement": "serum ALT", "setting": "[1]; liver IR, 1 mg/kg i.p. 30 min. prior to liver ischemia and 5 min prior to reperfusion, in U/L", "value": "6435±944"}
    ]},
    {"molecule": "CCCCCCCCCCCC1N[C@H](C(=O)O)CS1", "note": "(some centres unmarked) [BML-241]", "values": [
      {"measurement": "Effect of pre-treatment on Sg1P-mediated renal and hepatic protection after liver IR", "setting": "[1]", "value": "did not block"}
    ]},
    {"molecule": "Cc1nn(C)c2nc(NNC(=O)Nc3cc(Cl)nc(Cl)c3)cc(C(C)C)c12", "note": "[JTE-013]", "values": [
      {"measurement": "Effect of pre-treatment on Sg1P-mediated renal and hepatic protection after liver IR", "setting": "[1]", "value": "did not block"}
    ]},
    {"molecule": "CCCCCCc1cccc(NC(=O)[C@H](N)CCP(=O)(O)O)c1", "note": "[W146]", "values": [
      {"measurement": "Inhibition of Sg1P-mediated renal and hepatic protection", "setting": "[1]; 0.1 mg/kg (i.p.) 10 minutes prior to liver ischemia", "value": "completely inhibit"},
      {"measurement": "Serum ALT (mean)", "setting": "[1]", "value": "24452±1760 U/L and 24451 U/L"},
      {"measurement": "Serum creatinine (mean)", "setting": "[1]", "value": "1.6 ± 0.2 mg/dL and 1.55 mg/dL"},
      {"measurement": "Effect of pretreatment alone on kidney injury resulting from liver IR", "setting": "[1]", "value": "exacerbated kidney injury"},
      {"measurement": "Effect of pretreatment alone on liver injury resulting from liver IR", "setting": "[1]", "value": "exacerbated liver injury"},
      {"measurement": "Inhibition of Sg1P's protective effects against liver and kidney injury", "setting": "[1]; pre-treatment 0.01-0.2 mg/kg", "value": "dose-dependent"},
      {"measurement": "Effect of pre-treatment on protective effects of Sg1P on renal histology", "setting": "[6]", "value": "reduced the protective effects"},
      {"measurement": "Necrotic areas in the liver after IR", "setting": "[7]", "value": "increased significantly"}
    ]}
  ]
}
